ChEMBL document CHEMBL3102750 (J Med Chem, 2013)

Legend:
Assay type in all cases: functional, cell-based
[1] = molecular target: T1, Muscarinic acetylcholine receptor M5 (Homo sapiens) (UniProt P08912); assay: Negative allosteric modulation of human muscarinic acetylcholine receptor M5 expressed in CHO cells assessed as reduction of acetylcholine-induced calcium mobilization at 10 uM incubated for 150 secs prior to acetylcholine induction by Fluo-4 AM staining-based fluorescence assay relative to control; parameters: scale not given: the % may be the effect or the level left
T1 sequence (whole entry): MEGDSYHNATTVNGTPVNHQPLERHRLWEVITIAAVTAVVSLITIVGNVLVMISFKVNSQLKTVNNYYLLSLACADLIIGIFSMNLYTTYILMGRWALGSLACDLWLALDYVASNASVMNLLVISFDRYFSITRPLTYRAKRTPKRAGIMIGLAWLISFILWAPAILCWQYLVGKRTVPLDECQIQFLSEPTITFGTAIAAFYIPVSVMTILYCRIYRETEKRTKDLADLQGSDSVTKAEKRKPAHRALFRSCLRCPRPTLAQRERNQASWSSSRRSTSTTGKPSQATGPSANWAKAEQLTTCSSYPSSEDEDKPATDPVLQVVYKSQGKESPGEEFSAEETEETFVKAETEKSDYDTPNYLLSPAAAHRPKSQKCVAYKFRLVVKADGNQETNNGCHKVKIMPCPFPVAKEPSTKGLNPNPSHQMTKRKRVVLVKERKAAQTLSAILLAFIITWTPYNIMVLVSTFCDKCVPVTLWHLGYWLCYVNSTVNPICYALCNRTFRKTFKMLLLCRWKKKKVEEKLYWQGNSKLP

[2] = molecular target: T2, Muscarinic acetylcholine receptor M5 (Homo sapiens, UniProt P08912); assay: Negative allosteric modulation of human muscarinic acetylcholine receptor M5 expressed in CHO cells assessed as inhibition of acetylcholine-induced calcium mobilization incubated for 150 secs prior to acetylcholine induction by Fluo-4 AM staining-based fluorescence assay
T2 sequence (P08912 whole entry): T1 sequence (whole entry)

[3] = molecular target: Muscarinic acetylcholine receptor M3 (Homo sapiens, UniProt P20309); assay: Negative allosteric modulation of human muscarinic acetylcholine receptor M3 expressed in CHO cells assessed as inhibition of acetylcholine-induced calcium mobilization incubated for 150 secs prior to acetylcholine induction by Fluo-4 AM staining-based fluorescence assay
Sequence of Muscarinic acetylcholine receptor M3 (P20309 whole entry): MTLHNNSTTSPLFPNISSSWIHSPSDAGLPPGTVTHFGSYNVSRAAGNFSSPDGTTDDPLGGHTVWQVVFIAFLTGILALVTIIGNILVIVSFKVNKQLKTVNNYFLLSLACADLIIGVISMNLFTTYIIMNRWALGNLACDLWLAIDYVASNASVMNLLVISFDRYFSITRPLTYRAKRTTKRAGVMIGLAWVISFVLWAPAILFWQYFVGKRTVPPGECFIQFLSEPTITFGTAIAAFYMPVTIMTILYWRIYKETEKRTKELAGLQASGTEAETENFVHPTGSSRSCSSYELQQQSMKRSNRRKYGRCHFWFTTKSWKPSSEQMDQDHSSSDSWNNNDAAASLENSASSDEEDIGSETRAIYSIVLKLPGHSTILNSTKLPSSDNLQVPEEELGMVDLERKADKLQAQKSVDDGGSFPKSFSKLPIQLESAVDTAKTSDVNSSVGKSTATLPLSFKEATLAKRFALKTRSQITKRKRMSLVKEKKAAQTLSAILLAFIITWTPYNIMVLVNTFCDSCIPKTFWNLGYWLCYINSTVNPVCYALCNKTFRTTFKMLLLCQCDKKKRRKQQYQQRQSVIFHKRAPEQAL

[4] = molecular target: T3, Muscarinic acetylcholine receptor M1 (Homo sapiens, UniProt P11229); assay: Negative allosteric modulation of human muscarinic acetylcholine receptor M1 expressed in CHO cells assessed as inhibition of acetylcholine-induced calcium mobilization incubated for 150 secs prior to acetylcholine induction by Fluo-4 AM staining-based fluorescence assay
T3 sequence (P11229 whole entry): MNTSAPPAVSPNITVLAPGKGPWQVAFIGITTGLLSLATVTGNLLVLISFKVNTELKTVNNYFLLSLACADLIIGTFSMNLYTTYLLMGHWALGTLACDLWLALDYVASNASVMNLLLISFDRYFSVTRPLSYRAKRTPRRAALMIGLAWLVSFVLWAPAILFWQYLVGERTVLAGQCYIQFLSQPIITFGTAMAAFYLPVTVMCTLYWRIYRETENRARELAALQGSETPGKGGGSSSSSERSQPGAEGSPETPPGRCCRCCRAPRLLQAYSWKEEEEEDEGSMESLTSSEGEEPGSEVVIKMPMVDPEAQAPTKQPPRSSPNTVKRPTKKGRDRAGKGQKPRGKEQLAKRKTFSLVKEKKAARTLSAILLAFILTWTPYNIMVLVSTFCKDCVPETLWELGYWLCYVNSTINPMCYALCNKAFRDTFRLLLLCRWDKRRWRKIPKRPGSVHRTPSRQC

[5] = molecular target: T4, Muscarinic acetylcholine receptor M2 (Homo sapiens, UniProt P08172); assay: Negative allosteric modulation of human muscarinic acetylcholine receptor M2 expressed in CHO cells assessed as inhibition of acetylcholine-induced calcium mobilization incubated for 150 secs prior to acetylcholine induction by Fluo-4 AM staining-based fluorescence assay
T4 sequence (P08172 whole entry): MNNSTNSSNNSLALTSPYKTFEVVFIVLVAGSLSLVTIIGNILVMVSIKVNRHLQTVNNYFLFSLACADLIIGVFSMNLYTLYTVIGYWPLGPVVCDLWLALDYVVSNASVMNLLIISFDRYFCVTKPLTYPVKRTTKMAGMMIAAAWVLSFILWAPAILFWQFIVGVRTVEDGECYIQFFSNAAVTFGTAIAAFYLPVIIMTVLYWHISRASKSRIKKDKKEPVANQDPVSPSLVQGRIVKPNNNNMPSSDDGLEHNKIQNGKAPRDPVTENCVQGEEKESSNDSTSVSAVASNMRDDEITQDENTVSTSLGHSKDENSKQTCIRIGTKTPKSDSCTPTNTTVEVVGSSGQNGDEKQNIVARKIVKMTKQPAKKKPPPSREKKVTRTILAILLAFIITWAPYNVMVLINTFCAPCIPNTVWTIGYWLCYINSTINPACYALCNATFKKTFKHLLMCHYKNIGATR

[6] = molecular target: T5, Muscarinic acetylcholine receptor M5 (Rattus norvegicus, UniProt P08911); assay: Negative allosteric modulation of rat muscarinic acetylcholine receptor M5 expressed in CHO cells assessed as inhibition of acetylcholine-induced calcium mobilization incubated for 150 secs prior to acetylcholine induction by Fluo-4 AM staining-based fluorescence assay
T5 sequence (P08911 whole entry): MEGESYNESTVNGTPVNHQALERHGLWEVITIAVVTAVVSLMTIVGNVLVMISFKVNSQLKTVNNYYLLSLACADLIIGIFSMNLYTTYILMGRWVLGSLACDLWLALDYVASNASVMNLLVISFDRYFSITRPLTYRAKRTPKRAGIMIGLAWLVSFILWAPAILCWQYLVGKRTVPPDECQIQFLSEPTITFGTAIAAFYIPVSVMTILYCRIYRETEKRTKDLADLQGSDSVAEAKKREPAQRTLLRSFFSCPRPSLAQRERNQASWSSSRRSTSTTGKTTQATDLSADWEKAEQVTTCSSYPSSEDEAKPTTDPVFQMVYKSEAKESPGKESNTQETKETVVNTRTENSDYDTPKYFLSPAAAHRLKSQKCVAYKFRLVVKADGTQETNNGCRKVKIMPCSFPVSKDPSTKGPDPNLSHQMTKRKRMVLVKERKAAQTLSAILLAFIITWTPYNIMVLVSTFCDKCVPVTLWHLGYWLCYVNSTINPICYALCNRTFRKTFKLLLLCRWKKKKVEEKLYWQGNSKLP

[7] = molecular target: T6, Muscarinic acetylcholine receptor M4 (Homo sapiens, UniProt P08173); assay: Negative allosteric modulation of human muscarinic acetylcholine receptor M4 expressed in CHO cells assessed as inhibition of acetylcholine-induced calcium mobilization incubated for 150 secs prior to acetylcholine induction by Fluo-4 AM staining-based fluorescence assay
T6 sequence (P08173 whole entry): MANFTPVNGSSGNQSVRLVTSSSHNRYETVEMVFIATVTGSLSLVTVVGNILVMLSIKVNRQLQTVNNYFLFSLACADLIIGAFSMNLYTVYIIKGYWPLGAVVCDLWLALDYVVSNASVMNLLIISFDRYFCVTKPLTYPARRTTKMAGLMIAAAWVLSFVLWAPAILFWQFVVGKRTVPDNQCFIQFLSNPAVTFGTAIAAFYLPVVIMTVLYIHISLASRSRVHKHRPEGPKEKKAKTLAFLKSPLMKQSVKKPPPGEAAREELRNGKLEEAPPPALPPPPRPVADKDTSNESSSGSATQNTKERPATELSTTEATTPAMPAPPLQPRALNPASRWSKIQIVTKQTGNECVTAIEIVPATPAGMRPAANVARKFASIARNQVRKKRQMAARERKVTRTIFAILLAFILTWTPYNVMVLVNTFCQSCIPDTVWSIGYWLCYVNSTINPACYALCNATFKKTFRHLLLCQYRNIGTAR

Activity [1] [%]	IC50 [2] [µM]	SMILES	also measured
0.2	4.47	O=C(c1ccc(OC(F)(F)F)cc1)N1CCN2C(=O)c3ccccc3C12c1ccccc1 (stereo unspecified)	–
-5.3	2.3	O=C(c1ccc(OC(F)(F)F)cc1)N1CCN2C(=O)c3ccccc3C12c1ccc(Cl)cc1 (stereo unspecified)	–
–	> 10	Cc1ccc(C(=O)N2CCN3C(=O)c4ccccc4C23c2ccc(F)cc2)cc1 (stereo unspecified)	–
-0.7	3.02	O=C(c1cccc(C(F)(F)F)c1)N1CCN2C(=O)c3ccccc3C12c1ccccc1 (stereo unspecified)	–
–	> 10	Cc1ccc(C23c4ccccc4C(=O)N2CCN3C(=O)c2cccc(C(F)(F)F)c2)cc1 (stereo unspecified)	–
41	3.49	O=C(c1ccc(F)cc1)N1CCN2C(=O)c3ccccc3C12c1ccccc1 (stereo unspecified)	IC50 [3]: > 30 µM; IC50 [4]: > 30 µM; IC50 [5]: > 30 µM; IC50 [6]: 5.67 µM; IC50 [7]: > 30 µM
-0.2	3.5	Cc1ccc(C23c4ccccc4C(=O)N2CCN3C(=O)c2ccc(OC(F)(F)F)cc2)cc1 (stereo unspecified)	–
-2.4	2.1	O=C(c1cccc(C(F)(F)F)c1)N1CCN2C(=O)c3ccccc3C12c1ccc(F)cc1 (stereo unspecified)	–
0	5.75	O=C(c1cc(Cl)cc(Cl)c1)N1CCN2C(=O)c3ccccc3C12c1ccccc1 (stereo unspecified)	–
2.8	1	O=C(c1cc(F)cc(F)c1)N1CCN2C(=O)c3ccccc3C12c1ccc(Cl)cc1 (stereo unspecified)	–
-6.8	2.6	Cc1ccc(C23c4ccccc4C(=O)N2CCN3C(=O)c2ccc(F)c(F)c2)cc1 (stereo unspecified)	–
0.1	2.6	Cc1ccc(C(=O)N2CCN3C(=O)c4ccccc4C23c2ccc(Cl)cc2)cc1 (stereo unspecified)	–

The next lines start with the compound.

SMILES	Activity [1] [%]	IC50 [2] [µM]	also measured
O=C(c1ccc(F)c(F)c1)N1CCN2C(=O)c3ccccc3C12c1ccc(F)cc1 (stereo unspecified)	–	> 10	–
Cc1ccc(C23c4ccccc4C(=O)N2CCN3C(=O)c2cc(F)cc(F)c2)cc1 (stereo unspecified)	-1.1	2.3	–
Cc1ccc(C(=O)N2CCN3C(=O)c4ccccc4C23c2ccc(C)cc2)cc1 (stereo unspecified)	–	> 10	–
O=C(c1cc(F)cc(F)c1)N1CCN2C(=O)c3ccccc3C12c1ccc(F)cc1 (stereo unspecified)	–	> 10	–
O=C(c1ccc(C(F)(F)F)cc1)N1CCN2C(=O)c3ccccc3C12c1ccccc1 (stereo unspecified)	-2.4	1.95	–
O=C(c1ccc(SC(F)(F)F)cc1)N1CCN2C(=O)c3ccccc3C12c1ccc(Cl)cc1 (stereo unspecified)	-9.2	3	–
O=C(c1cccc(C(F)(F)F)c1)N1CCN2C(=O)c3ccccc3C12c1ccc(Cl)cc1 (stereo unspecified)	-7.2	4.9	–
O=C(c1cc(F)cc(F)c1)N1CCN2C(=O)c3ccccc3C12c1ccccc1 (stereo unspecified)	-2.2	3.8	–
O=C(c1ccc(OC(F)(F)F)cc1)N1CCN2C(=O)c3ccccc3C12c1ccc(F)cc1 (stereo unspecified)	–	> 10	–
O=C(c1ccc(SC(F)(F)F)cc1)N1CCN2C(=O)c3ccccc3C12c1ccccc1 (stereo unspecified)	0.5	1.38	–
Cc1ccc(C23c4ccccc4C(=O)N2CCN3C(=O)c2ccc(C(F)(F)F)cc2)cc1 (stereo unspecified)	–	> 10	–
O=C(c1ccc(C(F)(F)F)cc1)N1CCN2C(=O)c3ccccc3C12c1ccc(F)cc1 (stereo unspecified)	–	> 10	–
O=C(c1ccc(SC(F)(F)F)cc1)N1CCN2C(=O)c3ccccc3C12c1ccc(F)cc1 (stereo unspecified)	-0.2	1.3	–
O=C(c1ccc(C(F)(F)F)cc1)N1CCN2C(=O)c3ccccc3C12c1ccc(Cl)cc1 (stereo unspecified)	0.7	2	–
O=C(c1ccc(F)c(F)c1)N1CCN2C(=O)c3ccccc3C12c1ccc(Cl)cc1 (racemic)	0.1	–	IC50 [3]: > 30 µM; IC50 [4]: > 30 µM; IC50 [5]: > 30 µM; IC50 [7]: > 30 µM
Cc1ccc(C23c4ccccc4C(=O)N2CCN3C(=O)c2ccc(SC(F)(F)F)cc2)cc1 (stereo unspecified)	4.1	4.1	–
